The NIST ThermoML archive (doi:10.1016/j.jct.2012.05.014)

Test: xn = mol fraction of the nth substance listed
Details: Fluid (supercritical or subcritical phases), Gravimetric method

CCCCCCNC(=O)C(=O)NCCCCCC [N1,N2-dihexyloxalamide] + O=C=O
Details	mass density [kg/m3]
313 K, 9100 kPa, x1 = 0.000112	517.19
313 K, 9500 kPa, x1 = 0.0002518	584.52
313 K, 9800 kPa, x1 = 0.000392	615.65
313 K, 10100 kPa, x1 = 0.0005214	638.82
313 K, 10400 kPa, x1 = 0.0006463	657.22
323 K, 10700 kPa, x1 = 0.0001583	472.58
323 K, 11100 kPa, x1 = 0.0003041	515.81
323 K, 11400 kPa, x1 = 0.0004264	543.31
323 K, 11700 kPa, x1 = 0.0005407	566.85
323 K, 12000 kPa, x1 = 0.0006537	587.07
333 K, 11900 kPa, x1 = 0.0002196	428.55
333 K, 12300 kPa, x1 = 0.0003629	458.89
333 K, 12600 kPa, x1 = 0.0004822	480.5
333 K, 12900 kPa, x1 = 0.0006024	500.8
333 K, 13200 kPa, x1 = 0.0007245	519.67
343 K, 12500 kPa, x1 = 0.000277	374.67
343 K, 12900 kPa, x1 = 0.0003827	397.3
343 K, 13200 kPa, x1 = 0.0004661	414.22
343 K, 13500 kPa, x1 = 0.00056	430.94
343 K, 13700 kPa, x1 = 0.0006445	441.9
353 K, 12800 kPa, x1 = 0.0003133	331.22
353 K, 13300 kPa, x1 = 0.0004305	353.15
353 K, 13700 kPa, x1 = 0.0005336	370.9
353 K, 14000 kPa, x1 = 0.0006155	384.26
353 K, 14300 kPa, x1 = 0.0007224	397.58

CCCCCCCCNC(=O)C(=O)NCCCCCCCC [N1,N2-dioctyloxalamide] + O=C=O
Details	mass density [kg/m3]
313 K, 11700 kPa, x1 = 0.0001449	710.44
313 K, 12000 kPa, x1 = 0.0001679	719.38
313 K, 12500 kPa, x1 = 0.0002108	732.67
313 K, 13000 kPa, x1 = 0.00025	744.41
313 K, 13400 kPa, x1 = 0.000284	752.9
323 K, 12300 kPa, x1 = 0.0001146	604.62
323 K, 12900 kPa, x1 = 0.0001562	633.72
323 K, 13400 kPa, x1 = 0.000212	653.57
323 K, 13900 kPa, x1 = 0.0002628	670.57
323 K, 14400 kPa, x1 = 0.0003178	685.43
333 K, 12900 kPa, x1 = 9.49e-05	500.8
333 K, 13500 kPa, x1 = 0.0001511	537.09
333 K, 13900 kPa, x1 = 0.0002093	558.17
333 K, 14400 kPa, x1 = 0.0002622	581.45
333 K, 14800 kPa, x1 = 0.0003278	597.96
343 K, 13400 kPa, x1 = 9.77e-05	425.4
343 K, 13700 kPa, x1 = 0.0001344	441.9
343 K, 14000 kPa, x1 = 0.0001772	457.97
343 K, 14300 kPa, x1 = 0.0002091	473.49
343 K, 14600 kPa, x1 = 0.0002392	488.4
353 K, 13600 kPa, x1 = 0.0001134	366.46
353 K, 14000 kPa, x1 = 0.0001546	384.26
353 K, 14400 kPa, x1 = 0.0002019	402
353 K, 14700 kPa, x1 = 0.0002432	415.16
353 K, 15000 kPa, x1 = 0.0002821	428.15

CCCCNC(=O)C(=O)NCCCC [N,N'-dibutyloxalamide] + O=C=O
Details	mass density [kg/m3]
313 K, 9100 kPa, x1 = 0.0002628	517.19
313 K, 9300 kPa, x1 = 0.0005167	556.08
313 K, 9500 kPa, x1 = 0.0008035	584.52
313 K, 9700 kPa, x1 = 0.001136	606.4
313 K, 9800 kPa, x1 = 0.001295	615.65
323 K, 10300 kPa, x1 = 0.0001531	423.74
323 K, 10600 kPa, x1 = 0.0003084	460.74
323 K, 10900 kPa, x1 = 0.000518	495.1
323 K, 11100 kPa, x1 = 0.0007008	515.81
323 K, 11300 kPa, x1 = 0.000942	534.61
333 K, 11600 kPa, x1 = 0.0003355	405.21
333 K, 12000 kPa, x1 = 0.0005099	436.26
333 K, 12300 kPa, x1 = 0.0007204	458.89
333 K, 12500 kPa, x1 = 0.0009202	473.43
333 K, 12700 kPa, x1 = 0.001115	487.42
343 K, 12100 kPa, x1 = 0.0003508	352.31
343 K, 12500 kPa, x1 = 0.000503	374.67
343 K, 12800 kPa, x1 = 0.000639	391.64
343 K, 13000 kPa, x1 = 0.0007821	402.95
343 K, 13200 kPa, x1 = 0.0009026	414.22
353 K, 12600 kPa, x1 = 0.0003735	322.59
353 K, 13100 kPa, x1 = 0.0005294	344.33
353 K, 13500 kPa, x1 = 0.0006999	362.01
353 K, 13800 kPa, x1 = 0.0008396	375.36
353 K, 14000 kPa, x1 = 0.0009729	384.26
